On the series, the source says: In further embodiments, the propofol concentration is from about 0.01 wt.-% to about 80 wt.-%, or from about 0.1 wt-% to about 50 wt.-%, or from about 1 wt.-% to about 20 wt.-%, or from about 2 wt.-% to about 20 wt.-%, respectively. In further embodiments, the strength is about 1 wt.-% or higher, such as about 2 wt.-%, 5 wt.-%, 10 wt.-%, 20 wt.-%, or 25 wt.-%.

For the molecule `CC(C)c1cccc(C(C)C)c1O` [propofol, 2,6-di(propan-2-yl)phenol], the “propofol concentration possible in SFA solutions” value (SFA solutions) is given as “up to 960 mg/mL”. In addition, the “miscibility with SFA's” value (in most SFA's including F4H5, F6H6 and F6H8) is on record as “freely miscible”.

The values above are taken from US8796340B2, “Pharmaceutical composition comprising propofol” (Novaliq GmbH, priority 2009, dated 2014).
